Assays:
Type in all cases: cell-based
S typhimurium S18 = test: MIC, veterinary bacteria; settings: veterinary bacteria (Table 2)
M gallisepticum S6 = test: MIC, anti-mycoplasmal, serial dilution in Friis' agar
M dispar H225 = test: MIC, anti-mycoplasmal, Friis' broth microtiter method
Staph aureus Oxford [1] = test: MIC, veterinary bacteria; settings: veterinary bacteria (Table 2)
M pulmonis JB [2] = test: MIC, anti-mycoplasmal, Friis' broth microtiter method
Ps aeruginosa 10662 = test: MIC, human bacteria, serial dilution in nutrient agar; settings: nutrient agar containing 5% 'chocolated' horse blood
M pneumoniae ATCC 15492 [3] = test: MIC, anti-mycoplasmal, Friis' broth microtiter method
Staph aureus Oxford [4] = test: MIC, human bacteria, serial dilution in nutrient agar; settings: nutrient agar containing 5% 'chocolated' horse blood
E coli ESS = test: as above; settings: nutrient agar containing 5% 'chocolated' horse blood
E coli NCTC 10418 [5] = test: as above; settings: nutrient agar containing 5% 'chocolated' horse blood
M pulmonis JB [6] = test: MIC, anti-mycoplasmal, serial dilution in Friis' agar
M bovis NCTC 10131 = test: as above
M fermentans MWKL4 [7] = test: MIC, anti-mycoplasmal, Friis' broth microtiter method
[8] = test system: Corynebacterium pyogenes CY1; test: MIC, veterinary bacteria; settings: veterinary bacteria (Table 2)
Strep pyogenes A 64/848 = test: MIC, human bacteria, serial dilution in nutrient agar; settings: nutrient agar containing 5% 'chocolated' horse blood
Strep agalactiae SPA1 = test: MIC, veterinary bacteria; settings: veterinary bacteria (Table 2)
Staph aureus Russell = test: MIC, human bacteria, serial dilution in nutrient agar; settings: nutrient agar containing 5% 'chocolated' horse blood
Bacillus subtilis 6633 = test: as above; settings: nutrient agar containing 5% 'chocolated' horse blood
M dispar NCTC 10125 = test: MIC, anti-mycoplasmal, Friis' broth microtiter method
E coli E1 = test: MIC, veterinary bacteria; settings: veterinary bacteria (Table 2)
Strep dysgalaciae SPD1 = test: MIC, veterinary bacteria; settings: veterinary bacteria (Table 2)
M pneumoniae 427a [9] = test: MIC, anti-mycoplasmal, serial dilution in Friis' agar
M hyorhinis ATCC 23234 = test: as above
Staph aureus W2827 = test: MIC, human bacteria, serial dilution in nutrient agar; settings: nutrient agar containing 5% 'chocolated' horse blood
Past multocida PA2 = test: MIC, veterinary bacteria; settings: veterinary bacteria (Table 2)
Strep uberis SPU1 = test: MIC, veterinary bacteria; settings: veterinary bacteria (Table 2)
M pneumoniae ATCC 15492 [10] = test: MIC, anti-mycoplasmal, serial dilution in Friis' agar
E coli NCTC 10418 [11] = test: MIC, veterinary bacteria; settings: veterinary bacteria (Table 2)
[12] = test system: Strep suis (group D) SPS11; test: MIC, veterinary bacteria; settings: veterinary bacteria (Table 2)
Strep faecalis I = test: MIC, human bacteria, serial dilution in nutrient agar; settings: nutrient agar containing 5% 'chocolated' horse blood
Bord bronchiseptica BO8 = test: MIC, veterinary bacteria; settings: veterinary bacteria (Table 2)
[13] = test system: Pasteurella multocida 1633; test: MIC, human bacteria, serial dilution in nutrient agar; settings: nutrient agar containing 5% 'chocolated' horse blood
Strep pneumoniae CN33 = test: as above; settings: nutrient agar containing 5% 'chocolated' horse blood
M bovis ATCC 25025 = test: MIC, anti-mycoplasmal, serial dilution in Friis' agar
Past multocida PA1 = test: MIC, veterinary bacteria; settings: veterinary bacteria (Table 2)
[14] = test system: M suipneumoniae J2206/183b; test: MIC, anti-mycoplasmal, Friis' broth microtiter method
Sercina lutea 8340 = test: MIC, human bacteria, serial dilution in nutrient agar; settings: nutrient agar containing 5% 'chocolated' horse blood
Strep pyogenes C 2761 = test: as above; settings: nutrient agar containing 5% 'chocolated' horse blood
M alkalescens NCTC 10135 = test: MIC, anti-mycoplasmal, serial dilution in Friis' agar
[15] = test system: Haemophilus influenzae Q1; test: MIC, human bacteria, serial dilution in nutrient agar; settings: nutrient agar containing 5% 'chocolated' horse blood
M arthritidis ATCC 14124 = test: MIC, anti-mycoplasmal, serial dilution in Friis' agar
M hyosynoviae ATCC 25591 = test: as above
S dublin S7 = test: MIC, veterinary bacteria; settings: veterinary bacteria (Table 2)
Past Haemolytica PA5 = test: MIC, veterinary bacteria; settings: veterinary bacteria (Table 2)
M pneumoniae 427a [16] = test: MIC, anti-mycoplasmal, Friis' broth microtiter method
[17] = test system: Haemophilus influenzae Wy21; test: MIC, human bacteria, serial dilution in nutrient agar; settings: nutrient agar containing 5% 'chocolated' horse blood
Bord bronchisptica BO9 = test: MIC, veterinary bacteria; settings: veterinary bacteria (Table 2)
[18] = test system: Staph aureus 152 (pen sens); test: MIC, veterinary bacteria; settings: veterinary bacteria (Table 2)
Strep pyogenes B 2788 = test: MIC, human bacteria, serial dilution in nutrient agar; settings: nutrient agar containing 5% 'chocolated' horse blood
[19] = test system: Staph aureus B4 (pen resis); test: MIC, veterinary bacteria; settings: veterinary bacteria (Table 2)
M fermentans MWKL4 [20] = test: MIC, anti-mycoplasmal, serial dilution in Friis' agar
[21] = test system: Corynebacterium zerosis 9755; test: MIC, human bacteria, serial dilution in nutrient agar; settings: nutrient agar containing 5% 'chocolated' horse blood
K aerogenes A = test: as above; settings: nutrient agar containing 5% 'chocolated' horse blood
[22] = test system: Erysipelothrix rhusiopathiae NCTC 8163; test: MIC, veterinary bacteria; settings: veterinary bacteria (Table 2)
[23] = test system: Neisseria flavescens 8263; test: MIC, human bacteria, serial dilution in nutrient agar; settings: nutrient agar containing 5% 'chocolated' horse blood
P mirabilis 889 = test: as above; settings: nutrient agar containing 5% 'chocolated' horse blood
M synoviae ATCC 25204 = test: MIC, anti-mycoplasmal, serial dilution in Friis' agar
[24] = test system: M bovigenitalium ATCC 14173; test: as above
M suipneumoniae Str 11 = test: MIC, anti-mycoplasmal, Friis' broth microtiter method

8-Acetvloctyl Monate A [Example 3]
MIC (S typhimurium S18): >80 µg/mL
in vitro MIC, AGAR (M gallisepticum S6): 5.0 µg/mL
in vitro MIC, BROTH (M dispar H225): 0.039 µg/mL
MIC (Staph aureus Oxford [1]): 0.312 µg/mL
in vitro MIC, BROTH (M pulmonis JB [2]): <0.02 µg/mL
MIC (Ps aeruginosa 10662): >100 µm/ml
in vitro MIC, BROTH (M pneumoniae ATCC 15492 [3]): 0.312 µg/mL
MIC (Staph aureus Oxford [4]): 0.1 µm/ml
MIC (E coli ESS): 0.5 µm/ml
MIC (E coli NCTC 10418 [5]): 100 µm/ml
in vitro MIC, AGAR (M pulmonis JB [6]): 0.039 µg/mL
in vitro MIC, AGAR (M bovis NCTC 10131): ≤0.02 µg/mL
in vitro MIC, BROTH (M fermentans MWKL4 [7]): <0.02 µg/mL
MIC [8]: >80 µg/mL
MIC (Strep pyogenes A 64/848): 0.2 µm/ml
MIC (Strep agalactiae SPA1): 0.625 µg/mL
MIC (Staph aureus Russell): 9.5 µm/ml
MIC (Bacillus subtilis 6633): 0.2 µm/ml
in vitro MIC, BROTH (M dispar NCTC 10125): <0.02 µg/mL
MIC (E coli E1): >80 µg/mL
MIC (Strep dysgalaciae SPD1): 0.156 µg/mL
in vitro MIC, AGAR (M pneumoniae 427a [9]): 1.25 µg/mL
in vitro MIC, AGAR (M hyorhinis ATCC 23234): 0.625 µg/mL
MIC (Staph aureus W2827): 100 µm/ml
MIC (Past multocida PA2): 0.156 µg/mL
MIC (Strep uberis SPU1): 0.07 µg/mL
in vitro MIC, AGAR (M pneumoniae ATCC 15492 [10]): 1.25 µg/mL
MIC (E coli NCTC 10418 [11]): >80 µg/mL
MIC [12]: 1.25 µg/mL
MIC (Strep faecalis I): 100 µm/ml
MIC (Bord bronchiseptica BO8): 20 µg/mL
MIC [13]: 1.0 µm/ml
MIC (Strep pneumoniae CN33): 0.2 µm/ml
in vitro MIC, AGAR (M bovis ATCC 25025): 0.039 µg/mL
MIC (Past multocida PA1): 2.5 µg/mL
in vitro MIC, BROTH [14]: 0.156 µg/mL
MIC (Sercina lutea 8340): >100 µm/ml
MIC (Strep pyogenes C 2761): 0.5 µm/ml
in vitro MIC, AGAR (M alkalescens NCTC 10135): 0.039 µg/mL
MIC [15]: 0.2 µm/ml
in vitro MIC, AGAR (M arthritidis ATCC 14124): 2.5 µg/mL
in vitro MIC, AGAR (M hyosynoviae ATCC 25591): 0.156 µg/mL
MIC (S dublin S7): >80 µg/mL
MIC (Past Haemolytica PA5): 20 µg/mL
in vitro MIC, BROTH (M pneumoniae 427a [16]): 0.312 µg/mL
MIC [17]: 0.2 µm/ml
MIC (Bord bronchisptica BO9): 5 µg/mL
MIC [18]: 0.312 µg/mL
MIC (Strep pyogenes B 2788): 0.5 µm/ml
MIC [19]: 0.312 µg/mL
in vitro MIC, AGAR (M fermentans MWKL4 [20]): 0.039 µg/mL
MIC [21]: 100 µm/ml
MIC (K aerogenes A): >100 µm/ml
MIC [22]: 10 µg/mL
MIC [23]: 0.1 µm/ml
MIC (P mirabilis 889): >100 µm/ml
in vitro MIC, AGAR (M synoviae ATCC 25204): <0.02 µg/mL
in vitro MIC, AGAR [24]: 0.078 µg/mL
in vitro MIC, BROTH (M suipneumoniae Str 11): 0.039 µg/mL
